Counter-ions that a name gives are not always drawn.
The compounds below were run against T1, human TLR9 (hTLR9) (Homo sapiens, UniProt Q9NR96) (assay: Antagonist screen, hTLR9-NFκB-293 cells, 6× NF-κB-luciferase reporter, with EC50 of CpG ODN 2006). Conditions: FIG. 1, graph.
T1 construct: expressed in transfected cells
T1 sequence (Q9NR96 26-1032): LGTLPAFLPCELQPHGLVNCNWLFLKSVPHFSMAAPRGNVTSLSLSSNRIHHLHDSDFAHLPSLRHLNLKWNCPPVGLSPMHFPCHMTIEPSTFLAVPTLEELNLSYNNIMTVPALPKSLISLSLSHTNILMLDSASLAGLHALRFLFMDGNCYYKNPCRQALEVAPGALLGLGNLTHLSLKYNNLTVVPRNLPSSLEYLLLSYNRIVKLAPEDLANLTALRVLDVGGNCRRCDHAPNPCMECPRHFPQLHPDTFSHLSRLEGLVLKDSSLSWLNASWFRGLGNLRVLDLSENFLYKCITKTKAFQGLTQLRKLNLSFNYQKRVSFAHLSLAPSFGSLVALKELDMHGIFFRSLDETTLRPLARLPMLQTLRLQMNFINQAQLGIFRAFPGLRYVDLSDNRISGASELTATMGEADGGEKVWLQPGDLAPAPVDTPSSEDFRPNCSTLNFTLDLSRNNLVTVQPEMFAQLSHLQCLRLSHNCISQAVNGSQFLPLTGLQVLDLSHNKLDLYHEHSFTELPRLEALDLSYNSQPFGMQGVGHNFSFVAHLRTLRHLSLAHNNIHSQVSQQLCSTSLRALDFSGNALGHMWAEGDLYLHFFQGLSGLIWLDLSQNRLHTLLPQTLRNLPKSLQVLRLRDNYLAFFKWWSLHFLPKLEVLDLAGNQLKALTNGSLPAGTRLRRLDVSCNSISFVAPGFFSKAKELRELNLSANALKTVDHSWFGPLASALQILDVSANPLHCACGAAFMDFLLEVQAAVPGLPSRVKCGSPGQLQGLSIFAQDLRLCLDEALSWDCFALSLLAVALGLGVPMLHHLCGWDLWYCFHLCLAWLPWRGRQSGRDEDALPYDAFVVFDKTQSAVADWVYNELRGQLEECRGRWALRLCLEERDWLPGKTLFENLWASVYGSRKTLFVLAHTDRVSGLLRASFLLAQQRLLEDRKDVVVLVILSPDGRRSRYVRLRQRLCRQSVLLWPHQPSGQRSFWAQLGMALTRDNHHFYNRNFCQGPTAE
Format: cell-based
Method: Candidate small molecules for initial screening were obtained from a commercially available library of 880 off-patent small molecules selected for structural diversity and proven bioavailability in humans (Prestwick Chemical Library). […] Results were measured as fold induction over baseline luciferase activity measured in the absence of ODN 2006 and compared to fold induction over baseline in the presence of the EC50 concentration of ODN 2006 alone. […] Additional screening was performed in like manner using additional small molecules selected from another library or specifically prepared for this purpose.
The method is described in greater detail as follows. The cells for each individual cell clone (hTLR3-NFκB-293, hTLR7-NFκB-293, hTLR8-NFκB-293 and hTLR9-NFκB-293) were counted and seeded one day before the stimulation at 1.5×10^4 cells per well in 96-well cell culture plates. To become adherent the cells were incubated after seeding overnight at 37° C. in 5% CO2 humidified air.
The screen for each compound was performed at the same time for all of the receptors TLR3, TLR7, TLR8 and TLR9. Up to fifteen test compounds, each assayed in duplicate at each of three different final concentrations (0.5 μg/ml, 5 μg/ml, and 50 μg/ml), were used for 16 h cell stimulation on a single multiwell culture plate. A 4× final concentration master plate was created to prepare the different test compounds before they were added to the cells.
Controls were added as duplicates individually for each cell clone on the cell culture plate. Positive controls were used as follows (final concentrations): 50 μg/ml poly(I:C) for hTLR3-NFκB-293; 8 μM resiquimod (R848) for hTLR7-NFκB-293; 30 μM R848 for hTLR8-NFκB-293; and 2.5 μM CpG-ODN 2006 for hTLR9-NFκB-293. Media alone was used as negative control. After addition of controls and small molecules, the cell clones were additionally stimulated with the EC50 concentration of the appropriate receptor-specific ligand.
The mean value of wells H2 and H5 (each with cells and EC50 concentration of the appropriate receptor-specific ligand) divided by the mean of wells H3 and H6 (each with cells alone) yielded the baseline response (i.e., fold induction of luciferase activity) to EC50 concentration of the appropriate receptor-specific ligand.
After 16 h stimulation the supernatant was removed and the cells treated with lysis buffer and stored at −80° C. before measuring.
For each screen result a graphical documentation was performed.
The baseline result (measured with addition of the EC50 concentration of the receptor-specific ligand) for each cell culture plate was measured as described above. Antagonistic effects were measured by down regulation compared to the baseline. Antagonists were scored as follows: • 13: compounds for which there was clear down regulation at 0.5 μg/ml, 5 μg/ml, and 50 μg/ml; • 12: compounds for which there was clear down regulation at 5 μg/ml and 50 μg/ml; • 11: compounds for which there was clear down regulation only at 50 μg/ml; • —: compounds for which there was no clear down regulation even at 50 μg/ml. Agonists
COc1ccc2c(c1)[nH]c1c(C)nccc12.Cl [compound 613, harmine hydrochloride] was tested, and the “inhibition of TLR9 signaling in response to CpG ODN 2006 (FIG. 1)” value was “concentration-dependent inhibition”. With OCc1cc2c(cn1)[nH]c1ccccc12 [compound 878, 3-hydroxymethyl-beta-carboline] the “inhibition of TLR9 signaling in response to CpG ODN 2006 (FIG. 1)” value was “concentration-dependent inhibition”.

Same assay, conditions: compound at 0.5, 5, 50 μg/ml; EC50 concentration of CpG ODN 2006; 16 h; NF-κB-luciferase
With CC(=O)c1ccc2c(c1)N(CCCN(C)C)c1ccccc1S2.O=C(O)/C=C\C(=O)O [compound 576, Acetopromazinemaleate salt] the “hTLR9 (inhibitory effect, antagonist score)” value was 12 (compounds for which there was clear down regulation at 5 μg/ml and 50 μg/ml). With COC(=O)C1=CO[C@@H](C)[C@@H]2CN3CCc4c([nH]c5ccccc45)[C@@H]3C[C@H]12 [compound 593, Tetrahydroalstonine] the “hTLR9 (inhibitory effect, antagonist score)” value was 11 (compounds for which there was clear down regulation only at 50 μg/ml). CC[C@]12CCCN3CCc4c(n(c5ccccc45)C(=O)C1)[C@@H]32 [compound 607, Eburnamonine] was tested, and the “hTLR9 (inhibitory effect, antagonist score)” value was “— (compounds for which there was no clear down regulation even at 50 μg/ml)”. For Cc1nccc2c1[nH]c1cc(O)ccc12.Cl [compound 612, Harmol hydrochloride monohydrate], the “hTLR9 (inhibitory effect, antagonist score)” value was 12 (compounds for which there was clear down regulation at 5 μg/ml and 50 μg/ml). For COc1ccc2c(c1)[nH]c1c(C)nccc12.Cl [compound 613, harmine hydrochloride], the “hTLR9 (inhibitory effect, antagonist score)” value was 13 (compounds for which there was clear down regulation at 0.5 μg/ml, 5 μg/ml, and 50 μg/ml). In the case of Cc1c2ccncc2c(C)c2c1[nH]c1ccccc12 [compound 614, Ellipticine], the “hTLR9 (inhibitory effect, antagonist score)” value is reported as 13 (compounds for which there was clear down regulation at 0.5 μg/ml, 5 μg/ml, and 50 μg/ml). In the case of Cc1nccc2c1[nH]c1ccccc12 [compound 620, Harmane hydrochloride], the “hTLR9 (inhibitory effect, antagonist score)” value is reported as 12 (compounds for which there was clear down regulation at 5 μg/ml and 50 μg/ml). COc1ccc2[nH]c3c(c2c1)CCN=C3C [compound 621, Methoxy-6-harmalan] was tested, and the “hTLR9 (inhibitory effect, antagonist score)” value was 12 (compounds for which there was clear down regulation at 5 μg/ml and 50 μg/ml). For CC[C@]12CCCN3CCc4c(n(c5ccccc45)[C@](O)(C(=O)OC)C1)[C@@H]32 [compound 636, Epivincamine], the “hTLR9 (inhibitory effect, antagonist score)” value was “— (compounds for which there was no clear down regulation even at 50 μg/ml)”. For Cl.Cl.c1ccc2c3c([nH]c2c1)C1C2CCC(C4CCCNC42)N1CC3 (stereo not shown) [compound 685, Nitrarine dihydorchloride], the “hTLR9 (inhibitory effect, antagonist score)” value was 11 (compounds for which there was clear down regulation only at 50 μg/ml). In the case of CN(C)CCCN1c2ccccc2Sc2ccccc21.Cl [compound 693, Promazinehydrochloride], the “hTLR9 (inhibitory effect, antagonist score)” value is reported as 12 (compounds for which there was clear down regulation at 5 μg/ml and 50 μg/ml). For CN1CCC(OC(c2ccccc2)c2ccccc2)CC1.Cl [compound 707, Diphenylpyralinehydrochloride], the “hTLR9 (inhibitory effect, antagonist score)” value was 12 (compounds for which there was clear down regulation at 5 μg/ml and 50 μg/ml). For CCCC(C(=O)OCCN(CC)CC)(c1ccccc1)c1ccccc1.Cl [compound 778, Proadifen hydrochloride], the “hTLR9 (inhibitory effect, antagonist score)” value was 11 (compounds for which there was clear down regulation only at 50 μg/ml). For Cl.Clc1ccc(C(OCCN2CCCCC2)c2ccccc2)cc1 (stereo not shown) [compound 793, Cloperastinehydrochloride], the “hTLR9 (inhibitory effect, antagonist score)” value was 12 (compounds for which there was clear down regulation at 5 μg/ml and 50 μg/ml). COc1ccc2c(c1)N(CC(C)CN(C)C)c1ccccc1S2.O=C(O)/C=C\C(=O)O (stereo not shown) [compound 797, Methotrimeprazinemaleat salt] was tested, and the “hTLR9 (inhibitory effect, antagonist score)” value was “— (compounds for which there was no clear down regulation even at 50 μg/ml)”. For CS(=O)(=O)O.OC(CCN1CCCCC1)(c1ccccc1)c1ccccc1 [compound 799, Pridinolmethanesulfonate salt], the “hTLR9 (inhibitory effect, antagonist score)” value was 11 (compounds for which there was clear down regulation only at 50 μg/ml). With C[N+]12CCC(CC1)C(OC(=O)C(O)(c1ccccc1)c1ccccc1)C2.[Br-] (stereo not shown) [compound 822, Clidinium bromide] the “hTLR9 (inhibitory effect, antagonist score)” value was 12 (compounds for which there was clear down regulation at 5 μg/ml and 50 μg/ml). Clc1ccc(C(c2ccccc2Cl)C(Cl)Cl)cc1 (stereo not shown) [compound 833, Mitotane] was tested, and the “hTLR9 (inhibitory effect, antagonist score)” value was 12 (compounds for which there was clear down regulation at 5 μg/ml and 50 μg/ml). For CCN(CC)C(C)CN1c2ccccc2Sc2ccccc21.Cl (stereo not shown) [compound 840, Ethopropazinehydrochloride], the “hTLR9 (inhibitory effect, antagonist score)” value was 11 (compounds for which there was clear down regulation only at 50 μg/ml). In the case of CC(CN(C)C)CN1c2ccccc2Sc2ccccc21.CC(CN(C)C)CN1c2ccccc2Sc2ccccc21.O=C(O)C(O)C(O)C(=O)O (stereo not shown) [compound 842, Trimeprazine tartrate], the “hTLR9 (inhibitory effect, antagonist score)” value is reported as “— (compounds for which there was no clear down regulation even at 50 μg/ml)”. COC(=O)[C@H]1[C@H]2C[C@@H]3c4[nH]c5cc(OC)ccc5c4CCN3C[C@H]2C[C@@H](OC(=O)c2cc(OC)c(OC)c(OC)c2)[C@@H]1OC [compound 875, Reserpine] was tested, and the “hTLR9 (inhibitory effect, antagonist score)” value was 12 (compounds for which there was clear down regulation at 5 μg/ml and 50 μg/ml). For OCc1cc2c(cn1)[nH]c1ccccc12 [compound 878, 3-hydroxymethyl-beta-carboline], the “hTLR9 (inhibitory effect, antagonist score)” value was 12 (compounds for which there was clear down regulation at 5 μg/ml and 50 μg/ml). With O=C(O)c1cc(C(c2ccc(O)c(C(=O)O)c2)C(Cl)(Cl)Cl)ccc1O [compound 884] the “hTLR9 (inhibitory effect, antagonist score)” value was “— (compounds for which there was no clear down regulation even at 50 μg/ml)”. CN(CCO)C(=O)c1cccc2c1-c1ccccc1C2=O [compound 890] was tested, and the “hTLR9 (inhibitory effect, antagonist score)” value was “— (compounds for which there was no clear down regulation even at 50 μg/ml)”. COC(=O)c1cccc2c1-c1ccccc1/C2=N/O [compound 904] was tested, and the “hTLR9 (inhibitory effect, antagonist score)” value was 13 (compounds for which there was clear down regulation at 0.5 μg/ml, 5 μg/ml, and 50 μg/ml). For O=C(O)c1ccccc1NC1CC=CC2=C1C(=O)c1ccccc1C2=O (stereo not shown) [compound 917], the “hTLR9 (inhibitory effect, antagonist score)” value was “— (compounds for which there was no clear down regulation even at 50 μg/ml)”. In the case of O=C(O)c1cccc2c1/C(=N/O)c1ccccc1-2 [compound 918], the “hTLR9 (inhibitory effect, antagonist score)” value is reported as “— (compounds for which there was no clear down regulation even at 50 μg/ml)”. In the case of CCCCOC(=O)c1cc([N+](=O)[O-])cc2c1-c1cc(CO)c([NH+]([O-])O)cc1C2=C(C#N)C#N (stereo not shown) [compound 939], the “hTLR9 (inhibitory effect, antagonist score)” value is reported as 11 (compounds for which there was clear down regulation only at 50 μg/ml). For O=C(O)c1cccc2c1-c1ccccc1/C2=N/Nc1ccc([N+](=O)[O-])cc1[N+](=O)[O-] [compound 944], the “hTLR9 (inhibitory effect, antagonist score)” value was “— (compounds for which there was no clear down regulation even at 50 μg/ml)”.

From US7410975B2, “Small molecule toll-like receptor (TLR) antagonists” (Coley Pharmaceutical Group, Inc., priority 2003, dated 2008)
